# Test results as given in patent US20120077957A1, “Lactam-Bridged Melanocortin Receptor-Specific Peptides” (PALATIN TECHNOLOGIES, INC., priority 2009, published 2012).
# Where two headings read alike, the source gives them in different places. Bridge positions count the residues as written; N and C are the ends. Square brackets hold non-standard residues; d marks the D form. Peptide text beside a SMILES is read from it. Orn = NCCC[C@H](N)C(=O)O
# How the values were obtained:
# [1] = target: T1, human MC4-R (Homo sapiens, UniProt P32245); experiment: cAMP functional assay in HEK-293 T-REx cells expressing human MC4-R, induced with doxycycline 0.1 ng/mL (low density); format: cell-based; details: doxycycline 0.1 ng/mL, averages of all comparable assays; for Emax: HEK293-T-REx, maximal cAMP stimulation, NDP-α-MSH = 100%, read-out: Emax; for EC50: human MC4-R cAMP assay, read-out: Ec50
# T1 construct: expressed in transfected cells; host or cells: HEK293 T-REx (tetracycline-regulated, Invitrogen); cell line from Palatin Technologies with license from the University of Michigan
# T1 sequence (P32245 whole entry): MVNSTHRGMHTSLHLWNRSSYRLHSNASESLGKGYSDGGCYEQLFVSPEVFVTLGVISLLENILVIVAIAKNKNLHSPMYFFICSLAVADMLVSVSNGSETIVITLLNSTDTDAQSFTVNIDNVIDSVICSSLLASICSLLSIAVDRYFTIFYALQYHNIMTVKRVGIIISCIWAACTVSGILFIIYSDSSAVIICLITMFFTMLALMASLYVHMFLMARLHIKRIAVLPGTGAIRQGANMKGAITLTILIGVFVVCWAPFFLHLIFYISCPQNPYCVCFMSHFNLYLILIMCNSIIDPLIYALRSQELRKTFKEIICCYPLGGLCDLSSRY
# Description: A HEK293 cell line transfected with human MC4-R (from Palatin Technologies, US, with license from the University of Michigan) was used. The human MC4-R was introduced to HEK293 by using the T-REx™ System, Invitrogen. The T-REx™ System employs a tetracycline-regulated mammalian expression system that uses regulatory elements from the E. coli Tn10-encoded tetracycline (Tet) resistance operon. By use of the T-REx™ System, expression of the gene of interest, the human MC4-R gene, is repressed in the absence of tetracycline or doxycycline and induced in the presence of tetracycline or doxycycline (see T-REx™ System Manual, published by Invitrogen).
# Cells were then counted and volume was adjusted to 5×10^4 cells per 200 μL.
# The cells were then dispensed into 96-well plates (BD 353916) in 198 μL (about 5×10^4) cells/well and incubated for 10 minutes at 37° C. The compound to be tested was diluted with DMSO to a final concentration of 1 mM. Serial dilution was prepared in polypropylene removable 12-well library tube strips (VWR cat #83009-682). 120 μL of the 1 mM compound stock was pipetted in the second column on the plate.
# 2 μL of the standard, [Nle^4, D-Phe^7]alpha-Melanocyte Stimulating Hormone (NDP-α-MSH), or compound was added to the 96-well plate using the Janus robotic system. All assay samples were run in duplicate (i.e. each sample was in two low dox and two high dox plates, respectively). The plates were gently shaken and incubated for 15 minutes at 37° C. The reaction was stopped by adding 15 μL of lysis buffer per well and the plates were shakened for 30 minutes at room temperature.
# Agonist stimulation of the MC4-R activates adenylate cyclase, which is an enzyme that catalyses the formation 3′,5′-cyclic adenosine monophosphate (cAMP) from adenosine triphosphate (ATP). […] Fluoresence ratios were then calculated as described in the CisBio HTRF kit, with GraphPad Prism software used to plot the change in fluorescence percent values versus cAMP concentration using the variable slope dose response curve and, based on calculated cAMP concentrations, to determine EC50 and Emax values. […]
# [2] = target: T1, human MC4-R; experiment: Competitive inhibition binding assay with [I125]-NDP-α-MSH or Eu-NDP-α-MSH, membranes of HEK-293 cells expressing recombinant hMC4-R
# Protocol: A competitive inhibition binding assay was performed using membrane homogenates prepared from HEK-293 cells that express recombinant hMC4-R, hMC3-R, or hMC5-R, and from B-16 mouse melanoma cells (containing endogenous MC1-R). In some instances, HEK-293 cells that express recombinant hMC1-R were employed. In the examples that follow, all MC3-R, MC4-R and MC5-R values are for human recombinant receptors. […] After incubation for 60 minutes at 37° C., the assay mixture was filtered and the membranes washed three times with ice-cold buffer. Filters were dried and counted in a gamma counter for bound radioactivity. […] Maximal specific binding (100%) was defined as the difference in radioactivity (cpm) bound to cell membranes in the absence and presence of 1 μM NDP-α-MSH. […] Ki values for test peptides of the present invention were determined using Graph-Pad Prism® curve-fitting software.
# Alternatively, a competitive inhibition binding assay was performed employing Eu-NDP-α-MSH (PerkinElmer Life Sciences catalog No. AD0225) with determination by time-resolved fluorometry (TRF) of the lanthanide chelate. […] After incubation for 90 minutes at 37° C., the reaction was stopped by filtration over AcroWell 96-well filter plates (Pall Life Sciences). The filter plates were washed 4 times with 200 μL of ice-cold phosphate-buffered saline. DELFIA Enhancement solution (PerkinElmer Life Sciences) was added to each well. […] Each assay was conducted in duplicate and mean values were utilized. Ki values were determined by curve-fitting with Graph-Pad Prism® software using a one-site fixed-slope competition binding model.
# [3] = human MC4-R, averages of all comparable assays, read-out: Ki
Emax [1],EC50 [1],"Ki [2, 3]",Ki [2],SMILES
69%,,,33 nM,CC(=O)NCC[C@@H]1NC(=O)[C@@H](NC(=O)[C@H](CCCNC(=N)N)NC(C)=O)CC(=O)NCCCC[C@@H](C(N)=O)NC(=O)[C@H](Cc2c[nH]c3ccccc23)NC(=O)[C@H](CCCNC(=N)N)NC(=O)[C@@H](Cc2ccccc2)NC1=O [reference compound]
96%,6 nM,3 nM,,"CC(=O)N[C@@H](CCCNC(=N)N)C(=O)N[C@H]1CCC(=O)NCCC[C@@H](C(N)=O)NC(=O)[C@H](Cc2c[nH]c3ccccc23)NC(=O)[C@H](CCCNC(=N)N)NC(=O)[C@@H](Cc2ccccc2)NC(=O)[C@H](CCC(N)=O)NC1=O [No. 12, Ac-Arg-cyclo(Glu-Gln-D-Phe-Arg-Trp-Orn)-NH2]"
84%,1 nM,1 nM,,"CC(=O)N[C@@H](CCCNC(=N)N)C(=O)N[C@H]1CCCNC(=O)CC[C@@H](C(N)=O)NC(=O)[C@H](Cc2c[nH]c3ccccc23)NC(=O)[C@H](CCCNC(=N)N)NC(=O)[C@@H](Cc2ccccc2)NC(=O)[C@H](Cc2c[nH]cn2)NC1=O [No. 38, Ac-Arg-cyclo(Orn-His-D-Phe-Arg-Trp-Glu)-NH2] (Ac-R[Orn]H[dF]RWE-NH2; lactam 2-7)"
93%,0.1 nM,0.1 nM,,"CCCC[C@H](NC(C)=O)C(=O)N[C@H]1CCC(=O)NCCC[C@@H](C(N)=O)NC(=O)[C@H](Cc2c[nH]c3ccccc23)NC(=O)[C@H](CCCNC(=N)N)NC(=O)[C@@H](Cc2ccccc2)NC(=O)[C@H](Cc2c[nH]cn2)NC1=O [No. 2, Ac-Nle-cyclo(Glu-His-D-Phe-Arg-Trp-Orn)-NH2]"
62%,,573 nM,,CC(=O)NCCC[C@@H]1NC(=O)[C@@H](NC(=O)[C@H](CCCNC(=N)N)NC(C)=O)CC(=O)NCCCC[C@@H](C(N)=O)NC(=O)[C@H](Cc2c[nH]c3ccccc23)NC(=O)[C@H](CCCNC(=N)N)NC(=O)[C@@H](Cc2ccccc2)NC1=O [reference compound]
79%,,7 nM,,CC(=O)N[C@@H](CCCNC(=N)N)C(=O)N[C@H]1CC(=O)NCCCC[C@@H](C(N)=O)NC(=O)[C@H](Cc2c[nH]c3ccccc23)NC(=O)[C@H](CCCNC(=N)N)NC(=O)[C@@H](Cc2ccccc2)NC(=O)[C@H](CCCN)NC1=O [reference compound]

# The remaining lines, values behind:
SMILES,Emax [1],EC50 [1],"Ki [2, 3]",Ki [2]
"CC(=O)N[C@@H](CCCNC(=N)N)C(=O)N[C@H]1CCCNC(=O)CC[C@@H](C(=O)O)NC(=O)[C@H](Cc2c[nH]c3ccccc23)NC(=O)[C@H](CCCNC(=N)N)NC(=O)[C@@H](Cc2ccccc2)NC(=O)[C@H](Cc2c[nH]cn2)NC1=O [No. 37, Ac-Arg-cyclo(Orn-His-D-Phe-Arg-Trp-Glu)-OH] (Ac-R[Orn]H[dF]RWE-OH; lactam 2-7)",88%,0.6 nM,12 nM,
"CC(=O)NCCC[C@@H]1NC(=O)[C@@H](NC(=O)[C@H](CCCNC(=N)N)NC(C)=O)CCC(=O)NCCC[C@@H](C(N)=O)NC(=O)[C@H](Cc2c[nH]c3ccccc23)NC(=O)[C@H](CCCNC(=N)N)NC(=O)[C@@H](Cc2ccccc2)NC1=O [No. 33, Ac-Arg-cyclo(Glu-Orn(Acetyl)-D-Phe-Arg-Trp-Orn)-NH2]",90%,3 nM,7 nM,
"CC(=O)N[C@@H](CCCNC(=N)N)C(=O)N[C@H]1CCC(=O)NCCC[C@@H](C(N)=O)NC(=O)[C@H](Cc2c[nH]c3ccccc23)NC(=O)[C@H](CCCNC(=N)N)NC(=O)[C@@H](Cc2ccccc2)NC(=O)[C@H](CCCN)NC1=O [No. 8, Ac-Arg-cyclo(GIu-Orn-D-Phe-Arg-Trp-Orn)-NH2]",95%,0.4 nM,9 nM,
CC(=O)N[C@@H](CCCNC(=N)N)C(=O)N[C@H]1CC(=O)NCCCC[C@@H](C(=O)O)NC(=O)[C@H](Cc2c[nH]c3ccccc23)NC(=O)[C@H](CCCNC(=N)N)NC(=O)[C@@H](Cc2ccccc2)NC(=O)[C@H](CCCN)NC1=O [reference compound],84%,12 nM,18 nM,
"CC(=O)N[C@@H](CCCNC(=N)N)C(=O)N[C@H]1CCCNC(=O)CC[C@@H](C(N)=O)NC(=O)[C@H](Cc2c[nH]c3ccccc23)NC(=O)[C@H](CCCNC(=N)N)NC(=O)[C@@H](Cc2ccccc2)NC(=O)[C@H](C)NC1=O [No. 41, Ac-Arg-cyclo(Orn-Ala-D-Phe-Arg-Trp-Glu)-NH2] (Ac-R[Orn]A[dF]RWE-NH2; lactam 2-7)",52%,7 nM,19 nM,
"CC(=O)N[C@@H](CCCNC(=N)N)C(=O)N[C@H]1CCC(=O)NCCC[C@@H](C(N)=O)NC(=O)[C@H](Cc2c[nH]c3ccccc23)NC(=O)[C@H](CCCNC(=N)N)NC(=O)[C@@H](Cc2ccccc2)NC(=O)[C@@H]2C[C@@H](N)CN2C1=O [No. 32, Ac-Arg-cyclo(Glu-Pro(4R-NH2)-D-Phe-Arg-Trp-Orn)-NH2]",55%,8 nM,6 nM,
CC(=O)N[C@@H](CCCNC(=N)N)C(=O)N[C@H]1CC(=O)NCCCC[C@@H](C(N)=O)NC(=O)[C@H](Cc2c[nH]c3ccccc23)NC(=O)[C@H](CCCNC(=N)N)NC(=O)[C@@H](Cc2ccccc2)NC(=O)[C@H](C)NC1=O [reference compound] (Ac-RDA[dF]RWK-NH2; lactam 2-7),74%,37 nM,19 nM,
"CC(=O)N[C@@H](CCCNC(=N)N)C(=O)N[C@H]1CCC(=O)NCCC[C@@H](C(N)=O)NC(=O)[C@H](Cc2c[nH]c3ccccc23)NC(=O)[C@H](CCCNC(=N)N)NC(=O)[C@@H](Cc2ccccc2)NC(=O)[C@H](CCN)NC1=O [No. 6, Ac-Arg-cyclo(Glu-Dab-D-Phe-Arg-Trp-Orn)-NH2]",94%,0.3 nM,4 nM,
CC(=O)N[C@@H](CCCCN)C(=O)N[C@H]1CC(=O)NCCCC[C@@H](C(N)=O)NC(=O)[C@H](Cc2c[nH]c3ccccc23)NC(=O)[C@H](CCCNC(=N)N)NC(=O)[C@@H](Cc2ccccc2)NC(=O)[C@H](Cc2c[nH]cn2)NC1=O [reference compound] (Ac-KDH[dF]RWK-NH2; lactam 2-7),85%,5 nM,9 nM,
CC(=O)N[C@@H](CCCNC(=N)N)C(=O)N[C@H]1CC(=O)NCCCC[C@@H](C(N)=O)NC(=O)[C@H](Cc2c[nH]c3ccccc23)NC(=O)[C@H](CCCNC(=N)N)NC(=O)[C@@H](Cc2ccccc2)NC(=O)[C@H](CCS(C)(=O)=O)NC1=O [reference compound],29%,,7 nM,
"CC(=O)N[C@@H](CCCNC(=N)N)C(=O)N[C@H]1CCC(=O)NCCC[C@@H](C(=O)O)NC(=O)[C@H](Cc2c[nH]c3ccccc23)NC(=O)[C@H](CCCNC(=N)N)NC(=O)[C@@H](Cc2ccccc2)NC(=O)[C@H](COCc2ccccc2)NC1=O [No. 17, Ac-Arg-cyclo(Glu-Ser(Bzl)-D-Phe-Arg-Trp-Orn)-OH]",55%,2 nM,6 nM,
CC(=O)N[C@@H](CCCNC(=N)N)C(=O)N[C@H]1CC(=O)NCCCC[C@@H](C(N)=O)NC(=O)[C@H](Cc2c[nH]c3ccccc23)NC(=O)[C@H](CCCNC(=N)N)NC(=O)[C@@H](Cc2ccccc2)NC(=O)[C@@H]2C[C@@H](N)CN2C1=O [reference compound],61%,8 nM,5 nM,
"CCCC[C@H](NC(C)=O)C(=O)N[C@H]1CCCNC(=O)CC[C@@H](C(=O)O)NC(=O)[C@H](Cc2c[nH]c3ccccc23)NC(=O)[C@H](CCCNC(=N)N)NC(=O)[C@@H](Cc2ccccc2)NC(=O)[C@H](Cc2c[nH]cn2)NC1=O [No. 35, Ac-Nle-cyclo(Orn-His-D-Phe-Arg-Trp-Glu)-OH]",97%,2 nM,1 nM,
